In the NIST ThermoML archive (doi:10.1021/je800348s):

Test: xn = mol fraction of the nth substance listed
Conditions: 101 kPa, Liquid; for mass density: Vibrating tube method

C1C[C@@H]2[C@H]3CC[C@H](C3)[C@@H]2C1 [exo-tetrahydrodicyclopentadiene] + CCCCCCCC
Conditions	mass density, 293.15 K [kg/m3]	mass density, 298.15 K [kg/m3]	mass density, 303.15 K [kg/m3]	mass density, 313.15 K [kg/m3]	viscosity, 293.15 K [mPa·s]	viscosity, 298.15 K [mPa·s]	viscosity, 303.15 K [mPa·s]	viscosity, 313.15 K [mPa·s]
x2 = 0	935.2	931.4	927.7	922.2	3.064	2.74	2.514	2.27
x2 = 0.117	906.1	901	898.5	893.5	2.353	2.109	1.945	1.769
x2 = 0.2275	879.1	874.5	871.8	866.6	1.836	1.665	1.553	1.421
x2 = 0.3384	852.4	848.1	845.4	839.8	1.47	1.351	1.272	1.166
x2 = 0.4431	827.7	823.6	820.7	814.9	1.216	1.12	1.056	0.9677
x2 = 0.5439	804.2	800.3	797.2	791	1.027	0.9508	0.8917	0.8212
x2 = 0.6417	781.8	778	774.8	768.3	0.8793	0.8194	0.7691	0.7085
x2 = 0.7361	760.4	756.6	753.2	746.4	0.7663	0.7198	0.6752	0.6197
x2 = 0.8265	740.3	736.5	732.9	725.6	0.6722	0.6345	0.5929	0.5424
x2 = 0.9143	721.1	717.1	713.3	705.6	0.5988	0.5681	0.5302	0.4839

C1C[C@@H]2[C@H]3CC[C@H](C3)[C@@H]2C1 [exo-tetrahydrodicyclopentadiene] + CCCCCCCCCC
Conditions	mass density, 293.15 K [kg/m3]	mass density, 298.15 K [kg/m3]	mass density, 303.15 K [kg/m3]	mass density, 313.15 K [kg/m3]	viscosity, 293.15 K [mPa·s]	viscosity, 298.15 K [mPa·s]	viscosity, 303.15 K [mPa·s]	viscosity, 313.15 K [mPa·s]
x2 = 0	935.2	931.4	927.7	922.2	3.064	2.74	2.514	2.27
x2 = 0.095	912.7	907.5	905.4	900.2	2.631	2.339	2.191	2.006
x2 = 0.1934	890	885.1	882.8	877.8	2.26	1.996	1.889	1.741
x2 = 0.2908	868.3	863.7	861.2	856.3	1.964	1.728	1.638	1.53
x2 = 0.3902	846.8	842.5	839.8	834.8	1.717	1.521	1.441	1.334
x2 = 0.4893	826	822	819	814	1.525	1.362	1.287	1.214
x2 = 0.6147	800.7	796.9	793.7	788.4	1.348	1.194	1.143	1.101
x2 = 0.6905	786	782.3	779	773.3	1.245	1.102	1.058	1.032
x2 = 0.7895	767.4	763.7	760.3	754.2	1.13	1.009	0.9726	0.9345
x2 = 0.8952	748.2	744.6	740.9	734.3	1.032	0.9181	0.8852	0.8537
